Data reported in article PMC12723449, “From Pharmacophore to Warhead: NAD^+‐Targeting Triazoles as Mechanism‐Based Sirtuin Inhibitors” (Angewandte Chemie (International Ed. in English), 2025).

Assays:
[1] = target: T1, HEK293T cells overexpressing a NanoLuc–SIRT2 fusion protein (Homo sapiens, UniProt Q8IXJ6); assay: CE-ESI-MS analysis of adducts formed in cellulo; assay type: cell-based; conditions: 20 µM, 3 h
T1 construct: transfected HEK293T cells expressing the NanoLuc-tagged SIRT250-356 fusion protein were used instead of transient; expressed in transfected cells; host or cells: HEK293T (stably transfected)
T1 sequence (Q8IXJ6 50-356 limits assumed): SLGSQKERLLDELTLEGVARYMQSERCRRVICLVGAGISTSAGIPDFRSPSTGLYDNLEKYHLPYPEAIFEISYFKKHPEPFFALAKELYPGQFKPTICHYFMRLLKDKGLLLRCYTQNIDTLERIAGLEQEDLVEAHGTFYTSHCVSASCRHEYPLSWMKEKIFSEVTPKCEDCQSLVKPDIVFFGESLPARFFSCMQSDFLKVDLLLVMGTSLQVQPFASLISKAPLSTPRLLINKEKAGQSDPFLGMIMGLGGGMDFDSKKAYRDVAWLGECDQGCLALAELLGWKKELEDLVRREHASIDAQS

[2] = target: T2, SIRT2 (Homo sapiens, UniProt Q8IXJ6); assay: Kinetic analysis via continuous enzyme demyristoylation inhibition assay; assay type: biochemical; conditions: myristoylated substrate, two-step inhibition model; read-out: K I app
T2 construct: For assay experiments, strep-tagged human SIRT1134−747 and SIRT256-356 were expressed and purified as previously; Strep-tag; made in house; host or cells: E. coli BL21 Star (DE3)
T2 sequence (Q8IXJ6 56-356 limits assumed): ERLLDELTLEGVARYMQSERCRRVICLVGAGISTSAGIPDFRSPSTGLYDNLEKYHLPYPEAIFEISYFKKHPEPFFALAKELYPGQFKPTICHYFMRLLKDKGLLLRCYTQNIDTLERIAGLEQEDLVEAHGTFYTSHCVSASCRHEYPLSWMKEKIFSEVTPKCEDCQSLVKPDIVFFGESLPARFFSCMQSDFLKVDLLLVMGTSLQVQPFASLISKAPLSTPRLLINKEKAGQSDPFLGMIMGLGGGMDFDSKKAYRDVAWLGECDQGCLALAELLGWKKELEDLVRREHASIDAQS
Method: solution was diluted 100-fold to a total volume of 40 µL with substrate (final concentration of 40 nM), NAD+ (final concentration of 500 µM) and DMSO (final concentration of 5 % (v/v)) and transferred to a black 384-well microplate (Optiplate 384 F, PerkinElmer). For NAD+ preincubation, 0.1 µL of inhibitor solution (40× IC50, […] after jump dilution), 0.1 µL of SIRT2 (400 nM, final concentration of 1 nM after jump dilution) and 0.2 µL of NAD+ ([…] concentration of 500 µM after jump dilution) were preincubated for 30 min. […] The change in fluorescence was monitored with a microplate reader (λEx = 485 nm, λEm = 530-10 nm, BMG POLARstar Optima, BMG Labtech, Germany) every 30 s for 20 min. […] Reaction rates were obtained from the slope of the fluorescence signal over time and converted to product concentration using calibration curves, assuming equal fluorescence intensities for substrate and product, as […]
Ft = time-dependent signal resulting from product formation (in µM, calculated from AU values), F0 = Y-intercept = background signal at reaction initiation (in µM, calculated from AU values), vi = initial product formation velocity (in µM/min), vs = final/steady-state product formation velocity (in µM/min), t = incubation time after enzyme addition (in min), kobs = observed rate of time-dependent inhibition from initial vi to final vs (in min-1). […]

[3] = target: T2, SIRT2; assay: Jump-dilution assay; assay type: biochemical

Cc1cc(C)nc(SCC(=O)Nc2ncc(Cc3cccc(OCc4c[nH]nn4)c3)s2)n1 [Compound 7]
ADPR adduct formation in cells by CE-ESI-MS/MS [1]: confirmed formation of 7–ADPR in cellulo

CCCCCCCCCCCCc1cn(CCCC[C@H](NC(=O)[C@H](CCCCN)NC(=O)[C@@H]2CCCN2C(=O)[C@H](CC(C)C)NC(=O)[C@H](C)NC(=O)[C@H](CCC(=O)O)NC(C)=O)C(=O)N[C@H](C(=O)NCC(=O)NCC(N)=O)[C@@H](C)O)nn1 [Compound 6]
Ki [2]: 24.7 µM
SIRT2 enzymatic activity after jump dilution ([3]; preincubation of SIRT2 with compound and NAD+ (30 min), 1:100 dilution to 4 nM): 13%
SIRT2 enzymatic activity after jump dilution ([3]; without NAD+ preincubation, 1:100 dilution): 72%
